Test results published in US20070025914A1, “Bronchioalveolar stem cells and uses thereof” (priority 2005, published 2007).
Where “and” joins values, the source holds several entries; their conditions need not be identical. Equal values may be shown once.

Experiments:
BASCs [1] = test: BrdU proliferation at the BADJ after naphthalene; type: in vivo, mouse; conditions: all SP-Cpos CCApos
AT2 cells = test: AdGFP infection followed by IF for SP-C or CCA after naphthalene; type: in vivo, mouse; conditions: 24 hr after AdGFP; control 7.8%; no significant increase
From the text: FIG. 7A). An even greater impact on tumor area was associated with naphthalene treatment; adenomas comprised a 6-, 12-, and 15-fold greater proportion of total lung area when initiated after airway damage in the three experiments (p=0.009; FIG. 7B).

Lox-K-ras lung tumors = test: Naphthalene treatment before AdCre in LSL-K-ras G12D mice: tumor number and area; type: in vivo, mouse; conditions: 6 weeks, three independent experiments, p=0.04
Method: We reasoned that the cellular requirements for adenocarcinoma formation could be dissected further by combining K-ras G12D activation with naphthalene treatment, which stimulates proliferation of BASCs in vivo (see FIG. 2). LSL-K-ras G12D mice and wild-type controls were treated with naphthalene; tumorigenesis was initiated by administering AdCre 24 hr to 3 days later, and mice were euthanized after 6 weeks to determine tumor incidence and size.
An even greater impact on tumor area was associated with naphthalene treatment; adenomas comprised a 6-, 12-, and 15-fold greater proportion of total lung area when initiated after airway damage in the three experiments (p=0.009; FIG. 7B).

[2] = test system: BASCs (Sca-1pos CD45neg Pecamneg cells); test: FACS analysis of BASC abundance after naphthalene treatment; type: in vivo, mouse
BASCs [3] = test: BASC number per terminal bronchiole by dual IF for CCA and SP-C after naphthalene treatment
Method: To determine if airway damage affects BASCs, dual IF for CCA and SP-C is performed at various time points after naphthalene treatment. […] BrdU administered prior to euthanasia is used to determine if BASCs proliferate in response to naphthalene.
Lox-stop-lox K-ras G12D mice (Jackson et al. (2001) Genes Dev. 15, 3243-3248) and wild-type littermates were maintained in viral-free conditions on an F1 129 SvJ/C57BI6 background. Four- to eight-week-old mice were used for FACS or intranasal infections as described (Jackson et al. (2001) Genes Dev. 15, 3243-3248). Naphthalene (Aldrich) was dissolved in MAZOLA corn oil and injected i.p. at 275 mg/kg using sex- and background-matched control mice. […] 30 mg/kg BrdU in PBS was injected i.p. 2 hr before euthanasia for proliferation studies. Tissue preparation was as described (Jackson et al., 2001, supra). BASCs were quantified by scoring sections from at least three mice for each condition.

BASCs [4] = test: BASC incidence after intranasal bleomycin; type: in vivo, mouse
Method: Bleomycin is administered intranasally, and at various time points after treatment, the incidence of BASCs is determined.

number of BASCs after naphthalene (BASCs [3]; any time point after naphthalene)	Clara cell loss (BASCs [3]; by 52 hr after naphthalene)	Compound	time at which BrdUpos cells are first detected in the BADJ (BASCs [1])	infected (GFPpos) cells that were SP-Cpos (AT2 cells)	fold more tumors vs controls (corn oil, AdCre) (Lox-K-ras lung tumors)	abundance of BASCs, fold increase vs corn oil control ([2]; 1 week after treatment, p=0.04)	abundance of BASCs ([2]; 24 hr after naphthalene)	terminal bronchioles with two or more BASCs (BASCs [3]; 1 week after naphthalene 275 mg/kg i.p., controls 16%±5%, p=0.03)	number of BASCs per BADJ (BASCs [3]; six to seven weeks after naphthalene)	BASC distribution (BASCs [4]; 7 days after bleomycin)	BASC numbers (BASCs [4]; 14 days after bleomycin, p=0.01)	BASC distribution (BASCs [4]; 28 days after bleomycin)
did not significantly decrease	significant Clara cell loss	c1ccc2ccccc2c1 [naphthalene, Naphthalene]	52 h	10.5%	1.3 fold and 2.2 fold and 2.3 fold	1.3 fold	did not change	30%±9%	comparable to that in untreated lung			
		Bleomycin								significantly different neither	Significant increases	significantly different neither
